Values after ≈ are worked out from the molar mass of the structure shown. Like-named read-outs stand apart in the source and are kept apart here.
How the values were obtained:
[1] = system: P. aeruginosa ATCC27853; test: Broth microdilution MIC/MBC (ISO 20776-1); format: cell-based, Pseudomonas aeruginosa
Description: (§1) Bacterial strains and cell lines were obtained from the American Type Culture Collection (ATCC).[59] […] Antimicrobial activity was tested in Müeller Hinton (MH) II broth (Becton Dickinson). For anticancer activity assay, the following reagents from Merk were used: 3-(4,5-dimethylthiazol-2-yl)-2,5-diphenyltetrazolium bromide (MTT), sodium dodecyl sulfate (SDS) and HCl. The solubilized formazan product was spectrophotometrically quantified in a Power Wave XS (Bio Tek, Winooski, VT, USA) microplate reader. The HL-60 and PC-3 cells were grown in RPMI-1640 medium with stable glutamine (Biowest) supplemented with 10% (v/v) of heat-inactivated fetal bovine serum (FBS, Biowest) and 1% (v/v) of antibiotic–antimycotic solution (Biowest). The SKOV-3 cells were grown in McCoy's 5A medium with L-glutamine (Biowest) supplemented with 10% (v/v) heat-inactivated FBS, and 1% (v/v) antibiotic–antimycotic solution. The MCF-7 cells were grown in Eagle's MEM (Minimal Essential Medium) medium with stable glutamine (Biowest), supplemented with 10% (v/v) heat-inactivated FBS 1% (v/v) MEM non-essential amino acids (Biowest), 1% (v/v) antibiotic–antimycotic solution, and 1 mM sodium pyruvate (Merck). The MCF-10A cells were grown in Ham's F-12K (Kaighn's) Medium with stable glutamine (Gibco) supplemented with 5% (v/v) heat-inactivated FBS, 1% (v/v) MEM non-essential amino acids, 1% (v/v) antibiotic–antimycotic solution, 5 μg mL^−1 insulin, 0.04 μg mL^−1 hydrocortisone (Merck), and 15 ng mL^−1 human Epidermal Growth Factor (hEGF, PeproTech).
(§2) The in vitro antibacterial activity was determined according to ISO 20776-1.[88] Among the tested microorganisms were Gram-negative rods, E. coli ATCC25922 and P. aeruginosa ATCC27853, and Gram-positive cocci, S. aureus ATCC29213 and E. faecalis ATCC29212. The selected bacterial species represented the most common etiologic agents of human infections and are used for quality control of antimicrobial susceptibility testing.[89] The test procedure included the determination of MICs and MBCs of complexes and their free ligands. MIC and MBC determinations of ciprofloxacin, as the reference antibiotic, were also performed. All compounds were dissolved in DMSO to reach the maximum 512 mg L^−1 concentration. […] The assay consisted of preparing 2-fold dilutions of the substances in a liquid growth medium MH II and inoculating them with a standardized suspension of microorganisms at a McFarland density of 0.5 (≈10^8 CFU mL^−1). The culture plates were incubated at 35 °C for 24 h. The lowest concentration of the compound inhibiting visible bacterial growth was specified as MIC, and the concentration that reduced bacterial growth by >99.99% after counting live bacteria on the plates compared to the positive control was defined as MBC.

[2] = system: S. aureus ATCC29213; test: Broth microdilution MIC/MBC (ISO 20776-1); format: cell-based, Staphylococcus aureus
Description: as §1, §2

[3] = system: E. coli ATCC25922; test: Broth microdilution MIC/MBC (ISO 20776-1); format: cell-based, Escherichia coli
Description: as §1, §2

[4] = system: E. faecalis ATCC29212; test: Broth microdilution MIC/MBC (ISO 20776-1); format: cell-based, Enterococcus faecalis
Description: as §1, §2

[5] = system: HL-60 cells; test: MTT cytotoxicity assay; format: cell-based, human
Description: (§3) The cytotoxicities for studied compounds were evaluated against leukemia cells (HL-60), as well as ovarian (SKOV-3), prostate (PC-3), and breast (MCF-7) cancer cell lines. The potential selectivity of these compounds towards cancer cells was assessed by determination of their cytotoxicities towards breast non-cancerous cells (MCF-10A). For comparison, cisplatin was added to the cytotoxicity assays.
as §1
(§4) The cells were cultured in 96-well plates and incubated with the tested compound for 24 h and 48 h. All experiments were performed in exponentially growing cultures. The 0.03 M solutions of the compounds in DMSO were appropriately diluted using culture media. The maximal final concentration of DMSO in each well was 0.1%. The cytotoxicity of the compounds was measured by determining cell viability with a colorimetric test based on 3-(4,5-dimethylthiazol-2-yl)-2,5-diphenyltetrazolium bromide (MTT). MTT stock solution was added to each well to a final concentration of 0.5 mg mL^−1 and incubated for 4 h at 37 °C; following formazan crystals were dissolved by the addition of sodium dodecyl sulfate (SDS) solution (10% SDS in 0.001 M HCl). MTT and SDS were added directly to the cell culture. The compound's IC50 values (concentration required to reduce the viability of cells by 50% compared with the control cells) were calculated from the data obtained with the MTT assay.

[6] = system: SKOV-3 cells; test: MTT cytotoxicity assay; format: cell-based, human; details: for IC50: read-out: IC50 ± SD
Description: as §3, §1, §4

[7] = system: MCF-7 cells; test: MTT cytotoxicity assay; format: cell-based, human; details: for IC50: read-out: IC50 ± SD; for selectivity: IC50 for normal cells times higher than for breast cancer cells: MCF-10A versus MCF-7
Description: as §3, §1, §4

[8] = system: PC-3 cells; test: MTT cytotoxicity assay; format: cell-based, human; details: read-out: IC50 ± SD
Description: as §3, §1, §4

[9] = system: MCF-10A cells; test: MTT cytotoxicity assay; details: for IC50: read-out: IC50 ± SD
Description: as §3, §1, §4

[10] = Pseudomonas aeruginosa, P. aeruginosa ATCC27853, >99.99% reduction of growth, read-out: MBC
[11] = Pseudomonas aeruginosa, P. aeruginosa ATCC27853, MH II broth, 35 °C, 24 h, read-out: MIC
[12] = Staphylococcus aureus, S. aureus ATCC29213, >99.99% reduction of growth, read-out: MBC
[13] = Staphylococcus aureus, S. aureus ATCC29213, MH II broth, 35 °C, 24 h, read-out: MIC
[14] = Escherichia coli, E. coli ATCC25922, >99.99% reduction of growth, read-out: MBC
[15] = Escherichia coli, E. coli ATCC25922, MH II broth, 35 °C, 24 h, read-out: MIC
[16] = Enterococcus faecalis, E. faecalis ATCC29212, >99.99% reduction of growth, read-out: MBC
[17] = Enterococcus faecalis, E. faecalis ATCC29212, MH II broth, 35 °C, 24 h, read-out: MIC
[18] = HL-60, 24 h, MTT, read-out: IC50 ± SD
[19] = MCF-10A (non-cancerous), 24 h, MTT, * precipitation of the complex
[20] = MCF-10A (non-cancerous), 48 h, MTT, * precipitation of the complex
[21] = P. aeruginosa ATCC27853, >99.99% reduction of growth
[22] = P. aeruginosa ATCC27853, MH II broth, 35 °C, 24 h
[23] = S. aureus ATCC29213, >99.99% reduction of growth
[24] = S. aureus ATCC29213, MH II broth, 35 °C, 24 h
[25] = E. coli ATCC25922, >99.99% reduction of growth
[26] = E. coli ATCC25922, MH II broth, 35 °C, 24 h
[27] = E. faecalis ATCC29212, >99.99% reduction of growth
[28] = E. faecalis ATCC29212, MH II broth, 35 °C, 24 h
[29] = HL-60, 48 h, MTT, read-out: IC50 ± SD

SMILES	IC50 [5, 18] [µM]	IC50 ([6]; SKOV-3, 24 h, MTT) [µM]	IC50 ([6]; SKOV-3, 48 h, MTT) [µM]	IC50 ([8]; PC-3, 24 h, MTT) [µM]	IC50 ([8]; PC-3, 48 h, MTT) [µM]	IC50 [9, 19] [µM]	IC50 [9, 20] [µM]	MBC [1, 21]	MIC [1, 22]	MBC [2, 23] [µg/mL]	MIC [2, 24] [µg/mL]	MBC [3, 25]	MIC [3, 26]	MBC [4, 27] [µg/mL]	MIC [4, 28] [µg/mL]	IC50 [5, 29] [µM]	IC50 ([7]; MCF-7, 24 h, MTT) [µM]	IC50 ([7]; MCF-7, 48 h, MTT) [µM]	also measured
O=C(O)c1cn(C2CC2)c2cc(N3CCNCC3)c(F)cc2c1=O [CIP, ciprofloxacin, reference compound]	–	–	–	–	–	–	–	–	–	–	–	–	–	–	–	–	–	–	MBC [1, 10]: 8 µg/mL (≈ 24.1 µM); MIC [1, 11]: 1 µg/mL (≈ 3.02 µM); MBC [2, 12]: 1 µg/mL (≈ 3.02 µM); MIC [2, 13]: < 0.5 µg/mL; MBC [3, 14]: 4 µg/mL (≈ 12.1 µM); MIC [3, 15]: < 0.5 µg/mL; MBC [4, 16]: 8 µg/mL (≈ 24.1 µM); MIC [4, 17]: 2 µg/mL (≈ 6.04 µM)
Oc1ccc(Cl)c2cccnc12 [ClHQ, 5-chloro-8-hydroxyquinoline, reference compound]	–	–	–	–	–	–	–	–	–	–	–	–	–	–	–	–	–	–	MBC [1, 10]: > 512 µg/mL; MIC [1, 11]: 256 µg/mL (≈ 1430 µM); MBC [2, 12]: 32 µg/mL (≈ 178 µM); MIC [2, 13]: 8 µg/mL (≈ 44.5 µM); MBC [3, 14]: > 512 µg/mL; MIC [3, 15]: 16 µg/mL (≈ 89.1 µM); MBC [4, 16]: < 0.5 µg/mL; MIC [4, 17]: < 0.5 µg/mL; IC50 ([5]; Homo sapiens, HL-60, 24 h, MTT, read-out: IC50 ± SD): 1.7 ± 0.1 µM; IC50 ([5]; Homo sapiens, HL-60, 48 h, MTT, read-out: IC50 ± SD): 1.6 ± 0.4 µM; IC50 ([5]; Homo sapiens, HL-60, incubation time not stated in the text (24 and 48 h), read-out: IC50): < 2 µM; IC50 ([6]; Homo sapiens, SK-OV-3, SKOV-3, 24 h, MTT): > 100 µM; IC50 ([6]; Homo sapiens, SK-OV-3, SKOV-3, 48 h, MTT): 42 ± 7 µM; IC50 ([7]; Homo sapiens, MCF7, MCF-7, 24 h, MTT): 32 ± 8 µM; IC50 ([7]; Homo sapiens, MCF7, MCF-7, 48 h, MTT): 13 ± 5 µM; selectivity: IC50 for normal cells times higher than for breast cancer cells [7]: at least 3 times; IC50 ([8]; Homo sapiens, PC-3, 24 h, MTT): 25 ± 3 µM; IC50 ([8]; Homo sapiens, PC-3, 48 h, MTT): 39 ± 3 µM; IC50 ([9]; Homo sapiens, MCF-10A, 24 h): > 100 µM; IC50 ([9]; Homo sapiens, MCF-10A, 48 h): 70 ± 1 µM
Oc1cccc2cccnc12 [HQ, 8-hydroxyquinoline]	–	–	–	–	–	–	–	–	–	–	–	–	–	–	–	–	–	–	MBC ([1]; Pseudomonas aeruginosa, ATCC27853): > 512 µg/mL; MIC ([1]; Pseudomonas aeruginosa, ATCC27853, 24 h): 256 µg/mL (≈ 1760 µM); MBC ([2]; Staphylococcus aureus, ATCC29213): 64 µg/mL (≈ 441 µM); MIC ([2]; Staphylococcus aureus, ATCC29213, 24 h): 16 µg/mL (≈ 110 µM); MBC ([3]; Escherichia coli, ATCC25922): > 512 µg/mL; MIC ([3]; Escherichia coli, ATCC25922, 24 h): 32 µg/mL (≈ 220 µM); MBC ([4]; Enterococcus faecalis, ATCC29212): 32 µg/mL (≈ 220 µM); MIC ([4]; Enterococcus faecalis, ATCC29212, 24 h): 2 µg/mL (≈ 13.8 µM); IC50 ([5]; Homo sapiens, HL-60, 24 h, read-out: IC50 ± SD): 2.2 ± 0.2 µM; IC50 ([5]; Homo sapiens, HL-60, 48 h, read-out: IC50 ± SD): 2 ± 0.2 µM; IC50 ([6]; Homo sapiens, SK-OV-3, 24 h): > 100 µM; IC50 ([6]; Homo sapiens, SK-OV-3, 48 h): 29 ± 5 µM; IC50 ([7]; Homo sapiens, MCF7, 24 h): 24 ± 6 µM; IC50 ([7]; Homo sapiens, MCF7, 48 h): 7 ± 2 µM; selectivity: IC50 for normal cells times higher than for breast cancer cells [7]: at least 3 times; IC50 ([8]; Homo sapiens, PC-3, 24 h): 18 ± 2 µM; IC50 ([8]; Homo sapiens, PC-3, 48 h): 29 ± 3 µM; IC50 ([9]; Homo sapiens, MCF-10A, 24 h): > 100 µM; IC50 ([9]; Homo sapiens, MCF-10A, 48 h): > 100 µM
N.N.[Cl][Pt][Cl] [cisplatin, reference compound]	46 ± 1	> 100	> 100	58 ± 6	20 ± 2	> 100	> 100	–	–	–	–	–	–	–	–	–	–	–	activity ([6]; SKOV-3, incubation time not given): no action; IC50 / activity on normal cells ([9]; MCF-10A, incubation time not given): no action
[C-]#[O+].[C-]#[O+].[C-]#[O+].[Re][O]c1cccc2cccnc12.c1c[nH]cn1 [complex 1, [Re(CO)3(Q)Him]]	4.3 ± 0.2	36 ± 5	39 ± 3	28 ± 6	27 ± 4	39 ± 1	24 ± 1	> 512 µg/mL	128 µg/mL	> 512	256	256/256 mg L^−1	256/256 mg L^−1	> 512	64	4 ± 1	34 ± 4	30 ± 7	–
Cc1ncc[nH]1.[C-]#[O+].[C-]#[O+].[C-]#[O+].[Re][O]c1cccc2cccnc12 [complex 2, [Re(CO)3(Q)MeHim]]	10 ± 1	> 100	44 ± 1	34 ± 3	35 ± 2	31 ± 4	29 ± 5	>512/>512 mg L^−1	>512/>512 mg L^−1	> 512	256	>512/>512 mg L^−1	>512/>512 mg L^−1	> 512	128	9 ± 1	36 ± 3	30 ± 1	–
[C-]#[O+].[C-]#[O+].[C-]#[O+].[Re][O]c1cccc2cccnc12.c1ccc(-c2ccn[nH]2)cc1 [complex 4, [Re(CO)3(Q)HPhpz]·0.5CH3CN]	9 ± 1	> 100	81 ± 9	42 ± 6	27 ± 3	50 ± 5	36 ± 4	>512/>512 mg L^−1	>512/>512 mg L^−1	> 512	256	>512/>512 mg L^−1	>512/>512 mg L^−1	> 512	32	9 ± 1	73 ± 3	50 ± 3	–

Reference: publication PMC11152041, “Tricarbonyl rhenium(I) complexes with 8-hydroxyquinolines: structural, chemical, antibacterial, and anticancer characteristics” (RSC Advances, 2024)
